The values that follow come from PubChem BioAssay (NCI).

Several values for one entry are separate records, joined by “and”; a condition that tells them apart may be missing. Equal entries are not always repeated.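 These data come from cells grown in 96-well plates and exposed to compound for 48 hours at five concentrations. GI50: concentration for 50% inhibition of growth. TGI: concentration producing complete growth inhibition.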

Among the test systems are LXFL 529 NSCLC; HOP-18 NSCLC; DLD-1 colon; RXF-631 renal; DMS 273 small cell lung; KM20L2 colon; XF 498 CNS; DMS 114 small cell lung; MDA-N.
Holding throughout (experiment): NCI-60 cell line screen, 48 h

Consider `N.N.N.N.N.N.O=N[O-].[Br-].[Co+3].[Co+3].[OH3+].[OH3+]`, for which the figures for the GI50 in the test with LXFL 529 NSCLC, with HOP-18 NSCLC and in the test on DLD-1 colon were greater than 100 µM, 51.7 µM and greater than 100 µM, respectively. The TGI in the test with LXFL 529 NSCLC, with HOP-18 NSCLC and in the test with DLD-1 colon was greater than 100 µM throughout.

Take `Cc1nn(-c2ccccc2)c(-c2ccccc2[N+](=O)[O-])c1CC#N`: the TGI with RXF-631 renal, with LXFL 529 NSCLC, in the test on DMS 273 small cell lung, in the test on KM20L2 colon, with XF 498 CNS and with DMS 114 small cell lung was greater than 100 µM throughout.

`COc1ccccc1Nc1nc(NNC(=O)Cc2ccccc2)nc(NNC(=O)c2ccncc2)n1` came in with a TGI in the test on MDA-N greater than 10 µM.

`Cc1ccc(SC(=O)N2C(=S)NC(=NC3CCCCC3)C23CCCCC3)cc1` yielded a TGI in the test on MDA-N greater than 100 µM.

In the test with MDA-N, `O=C1NC2(CN3CCC2CC3)C(=O)N1CN(Cc1ccccc1)c1ccccc1` (stereo unspecified) registered a TGI greater than 100 µM.

Consider `OC12CC/C(=N/OCc3ccccc3)CC1c1ccccc12` (stereo unspecified), for which the TGI with LXFL 529 NSCLC, in the test on DMS 273 small cell lung, with KM20L2 colon, in the test with HOP-18 NSCLC, in the test on DLD-1 colon and in the test with DMS 114 small cell lung was greater than 100 µM throughout.

In the case of `O=[N+]([O-])c1nccn1COCCBr`, the TGI in the test on LXFL 529 NSCLC, in the test with KM20L2 colon, in the test on DLD-1 colon, in the test with XF 498 CNS and in the test on DMS 114 small cell lung was greater than 100 µM in each case.

For the compound `COc1cc(Br)c(C=Nc2cccc3ccc(OS(=O)(=O)c4cccc([N+](=O)[O-])c4)cc23)cc1OC`, the TGI in the test on LXFL 529 NSCLC, in the test on HOP-18 NSCLC, in the test with DLD-1 colon and with DMS 114 small cell lung was greater than 100 µM each time.

Compound `c1nnc(NCNc2nncs2)s1` returned a TGI with MDA-N greater than 100 µM.

For `OCC1OC(n2cnc3c(/C=C(/O)c4ccccc4)ncnc32)C(O)C1O` (stereo unspecified), the TGI in the test with MDA-N was greater than 100 µM.

On to `CN1C(=O)C(Cl)(C(Cl)(Cl)S(=O)(=O)O)C(=O)c2ccccc21` (stereo unspecified), for which the TGI in the test on LXFL 529 NSCLC was greater than 100 µM; in the test with KM20L2 colon it was 40.6 µM; in the test on DLD-1 colon it was greater than 100 µM.

Turning to `CNC(=S)N/N=C/c1ccc([N+](=O)[O-])s1`, the TGI with MDA-N was greater than 10 µM.

Regarding `CN[C@@H]1C[C@H]2O[C@@](C)([C@@H]1OC)n1c3ccccc3c3c4c(c5c6ccccc6n2c5c31)C(=O)N[C@@H]4O`, the TGI is 0.549 µM in the test with LXFL 529 NSCLC; 0.637 µM with DMS 273 small cell lung; 2.53 µM in the test on KM20L2 colon; 0.268 µM with HOP-18 NSCLC; 15 µM in the test on DLD-1 colon; 0.463 µM in the test with XF 498 CNS. Moreover, the TGI was found to be 1.6 µM in the test on MDA-N and 1.58 µM with DMS 114 small cell lung.

With `CC[C@@]1(O)C(=O)OCc2c1cc1n(c2=O)Cc2cc3cc(N)ccc3nc2-1`, the GI50 was 0.204 µM with LXFL 529 NSCLC; 0.00263 µM in the test on DMS 273 small cell lung; 0.0314 µM and 0.0373 µM in the test on KM20L2 colon; 0.0885 µM and 0.346 µM in the test on DLD-1 colon; 0.149 µM and 0.138 µM in the test with XF 498 CNS; 0.227 µM in the test with MDA-N. The TGI in the test with LXFL 529 NSCLC is 3.15 µM; in the test with DMS 273 small cell lung, 0.129 µM and 0.179 µM; with KM20L2 colon, 0.854 µM and 0.547 µM; with HOP-18 NSCLC, greater than 100 µM; in the test on DLD-1 colon it was greater than 100 µM; in the test with XF 498 CNS it was 1.39 µM and 0.864 µM. Also, the TGI with MDA-N is 1.4 µM and 0.27 µM.

On to `CC(=O)OC1[C@H]2c3cc4c(cc3CN3CCC(=C[C@@H]1O)C23)OCO4` (stereo partly specified), for which the TGI in the test with LXFL 529 NSCLC, in the test with DMS 273 small cell lung, in the test on KM20L2 colon and in the test on DLD-1 colon was greater than 100 µM each time.

Consider `Nc1ccc(S(=O)(=O)NCc2nccs2)cc1`, for which, in the test on MDA-N, the TGI worked out at 54.1 µM.

Compound `Cc1ccc(S(=O)(=O)N=Nc2c(O)[nH]c3c(Cl)cc(Cl)cc23)cc1` returned a TGI in the test with MDA-N greater than 100 µM.

Take `BrC1(Br)C2/C=C\CCCCC21` (stereo unspecified): the TGI in the test with LXFL 529 NSCLC, in the test on DMS 273 small cell lung, in the test with KM20L2 colon, in the test on HOP-18 NSCLC and in the test with XF 498 CNS was greater than 100 µM each time.

For the compound `C=C(C=O)CCCC(C)[C@@H]1CCC23CC12CCC1[C@@]2(C)CCC(OC(C)=O)C(C)(C)C2CC(OC2OC(COC(C)=O)C(O)C(O)C2O)[C@]13C` (stereo partly specified), the TGI in the test with LXFL 529 NSCLC came out at 8.44 µM; with DMS 273 small cell lung it was 13.3 µM; in the test on KM20L2 colon, 12.8 µM; in the test on HOP-18 NSCLC, 16.1 µM.

`C=C1C(=O)O[C@H]2C[C@@]3(C)[C@H](O)CCC(=C)[C@@H]3[C@@H](OC(C)=O)[C@H]12`: the TGI in the test on MDA-N came to 20.6 µM.

For `C[N+]1(C)C/C(=C\c2ccncc2)C(=O)/C(=C/c2ccncc2)C1`, the TGI in the test on LXFL 529 NSCLC, with DMS 273 small cell lung, in the test with KM20L2 colon, in the test on HOP-18 NSCLC, with DLD-1 colon and in the test with DMS 114 small cell lung was greater than 100 µM each time.

Regarding `S=c1nc(-c2cccnc2)[nH][nH]1`, the TGI in the test with LXFL 529 NSCLC, with DMS 273 small cell lung, with KM20L2 colon, in the test with HOP-18 NSCLC, in the test on DLD-1 colon and with XF 498 CNS was greater than 100 µM in each case. For the same compound, in the test with DMS 114 small cell lung, the TGI is greater than 100 µM.

For the compound `CCOc1ccccc1NC(=O)CCc1nc(=S)[nH][nH]1`, the TGI in the test with RXF-631 renal, in the test with LXFL 529 NSCLC, with HOP-18 NSCLC, in the test on DLD-1 colon and in the test with DMS 114 small cell lung was greater than 100 µM in each case.

Consider `COC(=O)c1nc(N)[nH]c(=O)c1CCCCCc1c(C(=O)OC)nc(N)[nH]c1=O`, for which the TGI in the test on RXF-631 renal, with LXFL 529 NSCLC, in the test on DMS 273 small cell lung, in the test on KM20L2 colon, in the test on HOP-18 NSCLC and in the test with DLD-1 colon was greater than 50 µM throughout. Also, the TGI in the test with XF 498 CNS and in the test with DMS 114 small cell lung was greater than 50 µM in each case.

Turning to `O=C1c2ccccc2-n2c1nc1ccccc1c2=O`, the TGI with MDA-N was 32.4 µM.

Regarding `COC(=O)c1c(-c2ccccc2)sc(-c2cccc3ccccc23)c1C(=O)OC`, the TGI with LXFL 529 NSCLC, with DMS 273 small cell lung, in the test on KM20L2 colon, in the test with HOP-18 NSCLC and in the test with DLD-1 colon was greater than 100 µM throughout.

The compound `O=C(O)CSc1ncccc1[N+](=O)[O-]` came in with a TGI in the test with MDA-N greater than 100 µM.
